Test [1] has as its target T1, full-length PPARδ (Homo sapiens, UniProt Q03181).
T1 construct: expressed in transfected cells; host or cells: HEK293
T1 sequence (Q03181 1-441): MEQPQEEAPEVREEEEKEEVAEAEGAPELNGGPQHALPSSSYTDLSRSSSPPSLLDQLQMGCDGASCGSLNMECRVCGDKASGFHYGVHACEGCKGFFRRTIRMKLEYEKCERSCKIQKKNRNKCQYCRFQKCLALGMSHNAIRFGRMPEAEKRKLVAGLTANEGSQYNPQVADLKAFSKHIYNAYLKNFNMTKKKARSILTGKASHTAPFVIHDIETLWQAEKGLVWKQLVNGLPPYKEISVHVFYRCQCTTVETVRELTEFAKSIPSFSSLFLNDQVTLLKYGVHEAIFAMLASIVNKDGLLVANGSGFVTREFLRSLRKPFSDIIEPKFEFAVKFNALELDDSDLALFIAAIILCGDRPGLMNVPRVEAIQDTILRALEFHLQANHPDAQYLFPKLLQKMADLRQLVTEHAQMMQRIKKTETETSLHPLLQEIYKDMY
Nature of the test: full-length PPARδ PPRE luciferase reporter assay in HEK293 cells. It is filed as cell-based. As to conditions: Fig. 1C. An excerpt: Luciferase activities were normalized to β-galactosidase activities.
Background: In a reporter assay the amount or activity of a reporter protein is the signal.

The test system of test [2] is human intestinal organoids. Nature of the test: fatty acid β-oxidation activity in living organoids (FAOBlue). The class given is cell-based. As to conditions: organoids pretreated with 500 μM oleic acid 48 h, then 1 μM GW1516 or 30 μM fatty acids 24 h.
The target in test [3] is T2, recombinant human PPARδ LBD protein (Homo sapiens, UniProt Q03181).
T2 construct: Human PPARδ LBD (140–442) construct was cloned into a pGEX-4T1 vector; GST (N, cleaved yes); made in house; host or cells: Escherichia coli BL21 (DE3) pLys
T2 sequence (Q03181 140-441 limits assumed): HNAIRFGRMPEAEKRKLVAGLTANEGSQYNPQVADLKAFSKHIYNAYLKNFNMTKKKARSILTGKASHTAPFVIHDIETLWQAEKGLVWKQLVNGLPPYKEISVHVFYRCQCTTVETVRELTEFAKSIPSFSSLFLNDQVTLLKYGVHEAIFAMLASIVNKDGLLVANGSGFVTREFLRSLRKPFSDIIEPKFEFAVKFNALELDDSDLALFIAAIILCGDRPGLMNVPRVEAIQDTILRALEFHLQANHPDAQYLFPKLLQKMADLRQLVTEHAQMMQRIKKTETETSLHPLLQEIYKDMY
Nature of the test: [14C] DHA competitive ligand-binding assay. To be noted: 100 nM [14C] DHA, 1 μM nonlabeled fatty acids, overnight at 4 °C. On the procedure:
To identify the mechanism underlying the activation of PPARδ by GLA-derived fatty acids, we performed a [^14C] DHA competitive ligand-binding assay describing the displacement of ligands from receptors with recombinant human PPARδ LBD protein produced by a bacterial expression system (Figs. 4, A and B and S2). PPARδ LBD or glutathione-S-transferase (GST) recombinant protein was incubated with both [^14C] […] A competitive inhibition of [^14C] DHA binding was analyzed as a direct binding to PPARδ LBD (see Experimental procedures). […] DHA binding to PPARδ LBD competitively (Fig. 4C).
Human PPARδ LBD (140–442) construct was cloned into a pGEX-4T1 vector (GE Healthcare Life Sciences) at the restriction enzyme site of SmaI and XhoI. The protein was expressed in Eschericia coli BL21 (DE3) pLys cells (Novagen) as a C-terminal fusion to a GST tag with a thrombin cleavage site. A single colony was cultured in 2 ml of LB media supplemented with 20 μg/ml of ampicillin and 30 μg/ml of chloramphenicol at 37 °C and 200 rpm for 18 h. The preculture was then transferred to 1 l of LB media until the A600 reached 0.6 to 0.8. IPTG was added to produce a final concentration of 0.4 mM, and expression was continued at 24 °C and 150 rpm for 18 h. Cells were collected using centrifugation, and pellets were resuspended in lysis buffer comprising 50 mM Tris–HCl (pH 7.5), 150 mM NaCl, 5 mM DTT, 1 mM EDTA, and 10% glycerol before sonication was performed. The supernatant was then collected using centrifugation at 100,000g and 4 °C for 70 min, after which it was loaded onto GST Accept (nacalai tesque) and equilibrated using the lysis buffer. Subsequently, the column was washed using five column volumes of the lysis buffer and thrombin cleavage buffer comprising 20 mM Tri–HCl (pH 8.4), 150 mM NaCl, 2.5 mM CaCl2, and 1 mM DTT, respectively. The GST tag was removed via digestion using biotinylated thrombin (Merck) for 18 h at 4 °C. The biotinylated thrombin was removed using Dynabeads M-280 streptavidin (Veritas). The purity of the target proteins was verified using SDS-PAGE.
A ligand-binding assay was performed as described previously with minor modifications ([72]). Briefly, purified recombinant human PPARδ LBD protein was incubated with 100 nM ([…]) [^14C] DHA in GP buffer (137 mM NaCl, 8.1 mM Na2HPO4, 2.68 mM KCl, 1.47 mM KH2PO4, 1% sodium azide, and 0.1% gelatin) overnight at 4 °C with or without various competitors (1 μM), including DHA and GLA-derived fatty acids. Unbound ligands were removed by adsorption to 3% dextran-coated charcoal, and the supernatant was collected. The PPARδ-bound [^14C] DHA was measured using a scintillation counter (PerkinElmer).

Test [4] has as its target T3, GAL4-PPARα LBD (Homo sapiens, UniProt Q07869).
T3 construct: chimeric receptors containing the LBD of various NRs; expressed in transfected cells; host or cells: HEK293
T3 sequence (Q07869 239-466 limits assumed): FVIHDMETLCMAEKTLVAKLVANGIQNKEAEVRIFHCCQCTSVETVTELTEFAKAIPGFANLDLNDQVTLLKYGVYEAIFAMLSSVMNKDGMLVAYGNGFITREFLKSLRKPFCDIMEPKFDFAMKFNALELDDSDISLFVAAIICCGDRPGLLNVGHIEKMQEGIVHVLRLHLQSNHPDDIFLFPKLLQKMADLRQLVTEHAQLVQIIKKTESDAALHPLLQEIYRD
Nature of the test: GAL4-PPARα LBD luciferase reporter assay in HEK293 cells. The class given is cell-based. As to conditions: GAL4-PPARα LBD, calculated from luciferase activity with Quest Graph EC50 Calculator.

Test [5] concerns human intestinal organoids. Description: intracellular triglyceride in human intestinal organoids. It is filed as cell-based. As to conditions: organoids pretreated with 500 μM oleic acid 48 h, then 1 μM GW1516 or 30 μM fatty acids 24 h.

“Also recorded” adds a separate entry of the source.

A word on the EC50: it is the midpoint of the concentration-response curve. As for `CCCCC/C=C\C/C=C\C/C=C\CCCCC(=O)O` [GLA, γ-linolenic acid, reference compound], in test [1], the “transactivation of full-length PPARδ (in words)” value is on record as “not”. In test [2], the “fatty acid β-oxidation activity” value was “not”. Moreover, the “competitive displacement of [14C] DHA binding to PPARδ LBD” value (“competitive displacement … to PPARδ LBD” for short) in test [3] was “only weak competition”. Further, the concentration giving a half-maximal response (EC50) in test [4] is 11 µM. The intracellular triglyceride levels entry in test [5] was “not”.

As to `CCCCCC(O)CCC=CCC=CCCCCC(=O)O` (stereo not drawn) [γHYD, 13-hydroxy-cis-6,cis-9-octadecadienoic acid], in test [1], the “transactivation of full-length PPARδ (in words)” value is reported as “activated PPARδ potently”. In addition, the “fatty acid β-oxidation activity” value in test [2] is “enhanced fatty acid β-oxidation”. The “competitive displacement … to PPARδ LBD” value in test [3] is “displaced [^14C] DHA binding to PPARδ LBD competitively; also recorded: comparable ligand-binding abilities to that of the C22 fatty acid DHA”. Also, in test [4], the EC50 was 2.84 µM. Moreover, the intracellular triglyceride levels entry in test [5] was “reduced intracellular triglyceride accumulation”.

On to `CCCCCC(=O)CCC=CCC=CCCCCC(=O)O` [γKetoD, 13-oxo-cis-6,cis-9-octadecadienoic acid], for which the “transactivation of full-length PPARδ (in words)” value in test [1] is “activated PPARδ potently”. The “fatty acid β-oxidation activity” value in test [2] was “enhanced fatty acid β-oxidation”. For the same compound, the “competitive displacement … to PPARδ LBD” value in test [3] was “displaced [^14C] DHA binding to PPARδ LBD competitively; also recorded: comparable ligand-binding abilities to that of the C22 fatty acid DHA”. Moreover, the 50% effective concentration (EC50) in test [4] was 4.14 µM. In test [5], the intracellular triglyceride levels entry is reported as “reduced intracellular triglyceride accumulation”.

The record behind these values is article PMC9636582 (The Journal of Biological Chemistry, 2022).
